Patent US10858335B2 (Rigel Pharmaceuticals, Inc., priority 2014, dated 2020)

test system: GDF8 signaling (p-SMAD-3 (Ser423/425)); test: AlphaScreen SureFire SMAD3 (p-Ser423/425) assay, GDF8-stimulated cells (GDF pSMAD); type: cell-based; settings: Mus musculus, MPC-11, GDF8-stimulated pSMAD3, MPC11; tested as the salt form given; read-out: GDF pSMAD (MPC11) (μM), inhibition of GDF8 signaling

Row | IC50 [µM] | Compound
1 | 4.77 | Nc1ncnc2ccc(-c3cccnc3-c3cc(O)c(F)cc3Cl)cc12 [compound 1020, 5-(3-(4-aminoquinazolin-6-yl)pyridin-2-yl)-4-chloro-2-fluorophenol]
2 | 1.86 | COc1cnc(-c2ccc(F)c(Cl)c2)c(-c2ccc3ncnc(N)c3c2)c1 [compound 992, 6-(2-(3-chloro-4-fluorophenyl)-5-methoxypyridin-3-yl)quinazolin-4-amine]
3 | 0.692 | Cc1cc(F)c(Cl)cc1-c1ncccc1-c1ccc2ncnc(N)c2c1 [compound 989, 6-(2-(5-chloro-4-fluoro-2-methylphenyl)pyridin-3-yl)quinazolin-4-amine]
4 | 0.735 | Nc1ncnc2ccc(-c3cccnc3-c3cc(C(F)F)ccc3Cl)cc12 [compound 1018, 6-(2-(2-chloro-5-(difluoromethyl)phenyl)pyridin-3-yl)quinazolin-4-amine]
5 | 0.223 | CCc1cccc(-c2ncccc2-c2ccc3ncnc(N)c3c2)c1 [compound 1007, 6-(2-(3-ethylphenyl)pyridin-3-yl)quinazolin-4-amine]
6 | 0.735 | Nc1ncnc2ccc(-c3cccnc3-c3cc(O)ccc3F)cc12 [compound 1006, 3-(3-(4-aminoquinazolin-6-yl)pyridin-2-yl)-4-fluorophenol]

same assay, conditions: Mus musculus, MPC-11, MPC11; GDF8-stimulated; p-SMAD3 AlphaScreen; read-out: GDF pSMAD (MPC11) (inhibition of GDF8 signaling)

Row | Compound | IC50 [µM]
7 | Cc1cc(-c2ncccc2-c2ccc3ncnc(Nc4ccc(C(N)=O)cc4)c3c2)ccc1F [compound 406, 4-((6-(2-(4-Fluoro-3-methylphenyl)pyridin-3-yl)quinazolin-4-yl)amino)benzamide] | 2.79
8 | Cc1cc(-c2ncccc2-c2ccn3ncc(C(=O)N[C@H]4CN5CCC4CC5)c3c2)ccc1F [compound 793, (R)-5-(2-(4-Fluoro-3-methylphenyl)pyridin-3-yl)-N-(quinuclidin-3-yl)pyrazolo[1,5-a]pyridine-3-carboxamide] | 2.08
9 | Cc1cccc(-c2ncccc2-c2ccc3nc(N)ncc3c2)c1 [compound 384, 6-(2-(m-Tolyl)pyridin-3-yl)quinazolin-2-amine] | 7.79
10 | Cc1cc(-c2ncc(NS(C)(=O)=O)cc2-c2ccc3[nH]ncc3c2)ccc1F [Compound 30, N-(6-(4-Fluoro-3-methylphenyl)-5-(1H-indazol-5-yl)pyridin-3-yl)methanesulfonamide] | 3.7
11 | N#Cc1cnc2ccc(-c3cccnc3-c3cc(Cl)c(F)cc3F)cn12 [compound 720, 6-(2-(5-Chloro-2,4-difluorophenyl)pyridin-3-yl)imidazo[1,2-a]pyridine-3-carbonitrile] | 0.822
12 | Fc1cc(Cl)cc(-c2ncccc2-c2ccc3ncnn3c2)c1 [compound 770, 6-(2-(3-Chloro-5-fluorophenyl)pyridin-3-yl)-[1,2,4]triazolo[1,5-a]pyridine] | 1.31
13 | Cc1cc(-c2ncccc2-c2ccc3cnccc3c2)ccc1F [compound 249, 6-(2-(4-Fluoro-3-methylphenyl)pyridin-3-yl)isoquinoline] | 8.83
14 | Cc1cccc(-c2ncccc2-c2ccc3c(c2)OCO3)c1 [Compound 109, 3-(Benzo[d][1,3]dioxol-6-yl)-2-m-tolylpyridine] | 17.2
15 | Cc1ccc(Cl)c(-c2ncccc2-c2ccn3ncnc3c2)c1 [compound 876, 7-(2-(2-Chloro-5-methylphenyl)pyridin-3-yl)-[1,2,4]triazolo[1,5-a]pyridine] | 2.37
16 | Oc1cccc(-c2ncccc2-c2cnc3cn[nH]c3c2)c1 [Compound 144, 3-(3-(1H-Pyrazolo[4,3-b]pyridin-6-yl)pyridin-2-yl)phenol] | 9.39
17 | c1cc(-c2ncccc2-c2ccc3nccc(N4CCOCC4)c3c2)cc(C2CC2)c1 [compound 549, 4-(6-(2-(3-Cyclopropylphenyl)pyridin-3-yl)quinolin-4-yl)morpholine] | 5.01
18 | Cc1cc(-c2ncccc2-c2ccc3ncnc(NC(C)C)c3c2)ccc1F [compound 400, 6-(2-(4-Fluoro-3-methylphenyl)pyridin-3-yl)-N-isopropylquinazolin-4-amine] | 5.81
19 | Cc1cc(-c2ncc(COCC(=O)N(C)C)cc2-c2ccc3nccnc3c2)ccc1F [compound 231, 2-((6-(4-Fluoro-3-methylphenyl)-5-(quinoxalin-6-yl)pyridin-3-yl)methoxy)-N,N-dimethylacetamide] | 10.8
20 | Cc1cccc(-c2ncc(NC(=O)NC(C)C)cc2-c2ccc3[nH]ncc3c2)c1 [compound 214, 1-(5-(1H-Indazol-5-yl)-6-(m-tolyl)pyridin-3-yl)-3-isopropylurea] | 2.64
21 | Cc1cccc(-c2ncccc2-c2ccc3c(=O)nc[nH]c3c2)c1 [compound 349, 7-(2-(m-Tolyl)pyridin-3-yl)quinazolin-4(1H)-one] | 1.01
22 | Cc1cccc(-c2ncccc2-c2ccc3ccncc3c2)c1 [Compound 210, 7-(2-m-Tolylpyridin-3-yl)isoquinoline] | 12.7
23 | Cc1cc(-c2ncccc2-c2ccn3ncc(C(=O)N[C@@H]4CCCC[C@H]4N)c3c2)ccc1F [compound 663, N-((1R,2R)-2-Aminocyclohexyl)-5-(2-(4-fluoro-3-methylphenyl)pyridin-3-yl)pyrazolo[1,5-a]pyridine-3-carboxamide] | 8.09
24 | Cc1cc(-c2ncc(NC(C)C)cc2-c2ccc3nccnc3c2)ccc1F [compound 241, 6-(4-Fluoro-3-methylphenyl)-N-isopropyl-5-(quinoxalin-6-yl)pyridin-3-amine] | 4.06
25 | C1=C(c2cccc(-c3ncccc3-c3cnc4[nH]ncc4c3)c2)CCC1 [Compound 170, 5-(2-(3-Cyclopentenylphenyl)pyridin-3-yl)-1H-pyrazolo[3,4-b]pyridine] | 1.96
26 | CCOc1cnc(-c2ccc(F)c(C)c2)c(-c2ccc3[nH]ncc3c2)c1 [Compound 1, 5-(5-Ethoxy-2-(4-fluoro-3-methylphenyl)pyridin-3-yl)-1H-indazole] | 1.65

More lines, now with the values ahead:

Row | IC50 [µM] | Compound
27 | 0.794 | Fc1cc(F)c(-c2ncccc2-c2ccc3nccn3c2)cc1F [compound 694, 6-(2-(2,4,5-Trifluorophenyl)pyridin-3-yl)imidazo[1,2-a]pyridine]
28 | 0.617 | CC(=O)c1cnc2ccc(-c3cccnc3-c3ccc(F)c(C)c3)cn12 [compound 586, 1-(6-(2-(4-Fluoro-3-methylphenyl)pyridin-3-yl)imidazo[1,2-a]pyridin-3-yl)ethan-1-one]
29 | 0.562 | CCOC(=O)c1cnn2ccc(-c3cccnc3-c3ccc(F)c(C)c3)cc12 [compound 677, Ethyl 5-(2-(4-Fluoro-3-methylphenyl)pyridin-3-yl)pyrazolo[1,5-a]pyridine-3-carboxylate]
30 | 0.547 | O=c1nc[nH]c2ccc(-c3cccnc3-c3ccc(F)c(Cl)c3)cc12 [compound 388, 6-(2-(3-Chloro-4-fluorophenyl)pyridin-3-yl)quinazolin-4(1H)-one]
31 | 0.44 | FC(F)(F)c1cccc(-c2ncccc2-c2cnc3[nH]ncc3c2)c1 [Compound 198, 5-(2-(3-(Trifluoromethyl)phenyl)pyridin-3-yl)-1H-pyrazolo[3,4-b]pyridine]
32 | 0.404 | Cc1cnc(-c2cccc(Cl)c2)c(-c2ccn3ncnc3c2)c1 [compound 868, 7-(2-(3-Chlorophenyl)-5-methylpyridin-3-yl)-[1,2,4]triazolo[1,5-a]pyridine]
33 | 0.384 | Cc1cc(-c2ncccc2-c2ccc3ncnc(OCCCN(C)C)c3c2)ccc1F [compound 429, 3-((6-(2-(4-Fluoro-3-methylphenyl)pyridin-3-yl)quinazolin-4-yl)oxy)-N,N-dimethylpropan-1-amine]
34 | 0.375 | N#Cc1cnc2ccc(-c3cccnc3-c3cccc(Cl)c3)nn12 [compound 949, 6-(2-(3-Chlorophenyl)pyridin-3-yl)imidazo[1,2-b]pyridazine-3-carbonitrile]
35 | 0.311 | Cc1cc(-c2ncc(NCc3cccc(O)c3)cc2-c2ccc3ncsc3c2)ccc1F [compound 332, 3-(((5-(Benzo[d]thiazol-6-yl)-6-(4-fluoro-3-methylphenyl)pyridin-3-yl)amino)methyl)phenol]
36 | 0.274 | Fc1cc(F)c(-c2ncccc2-c2ccn3nccc3c2)cc1Cl [compound 760, 5-(2-(5-Chloro-2,4-difluorophenyl)pyridin-3-yl)pyrazolo[1,5-a]pyridine]
37 | 0.251 | Fc1ccc(Cl)cc1-c1ncccc1-c1ccn2ncnc2c1 [compound 736, 7-(2-(5-Chloro-2-fluorophenyl)pyridin-3-yl)-[1,2,4]triazolo[1,5-a]pyridine]
38 | 0.25 | c1cc(-c2ncccc2-c2ccc3nccnc3c2)cc(C2CC2)c1 [compound 541, 6-(2-(3-Cyclopropylphenyl)pyridin-3-yl)quinoxaline]
39 | 0.208 | Cc1cc(-c2ncccc2-c2ccn3ncc(C(=O)NC4CC(C)(C)N(C)C(C)(C)C4)c3c2)ccc1F [compound 703, 5-(2-(4-Fluoro-3-methylphenyl)pyridin-3-yl)-N-(1,2,2,6,6-pentamethylpiperidin-4-yl)pyrazolo[1,5-a]pyridine-3-carboxamide]
40 | 0.161 | Nc1ncnc2ccc(-c3cccnc3-c3cccc(OCC(F)(F)F)c3)cc12 [compound 484, 6-(2-(3-(2,2,2-Trifluoroethoxy)phenyl)pyridin-3-yl)quinazolin-4-amine]
41 | 0.129 | Cc1cc(-c2ncc(NCc3cccnc3)cc2-c2ccc3ncsc3c2)ccc1F [compound 306, 5-(Benzo[d]thiazol-6-yl)-6-(4-fluoro-3-methylphenyl)-N-(pyridin-3-ylmethyl)pyridin-3-amine]
42 | 0.127 | O=c1[nH]cnc2ccc(-c3cccnc3-c3cc(Cl)ccc3F)cc12 [compound 822, 6-(2-(5-Chloro-2-fluorophenyl)pyridin-3-yl)quinazolin-4(3H)-one]
43 | 0.104 | Clc1cccc(-c2ncccc2-c2ccn3nccc3n2)c1 [compound 916, 5-(2-(3-Chlorophenyl)pyridin-3-yl)pyrazolo[1,5-a]pyrimidine]
44 | 0.0962 | CNC(=O)c1cnc2ccc(-c3cccnc3-c3ccc(F)c(C)c3)cn12 [compound 584, 6-(2-(4-Fluoro-3-methylphenyl)pyridin-3-yl)-N-methylimidazo[1,2-a]pyridine-3-carboxamide]
